# Measured values taken from patent publication US8664257B2, “Oxygen-substituted 3-heteroaroylamino-propionic acid derivatives and their use as pharmaceuticals” (Sanofi, priority 2010, dated 2014).
# pIC50: −log10 of the molar value.
# Biological target: T1, Recombinant human cathepsin A (Homo sapiens, UniProt P10619)
# T1 construct: Recombinant human cathepsin A (residues 29-480, with a C-terminal 10-His tag); 10-His (C); purchased R&D Systems 1049-SE
# T1 sequence (P10619 29-312 limits assumed): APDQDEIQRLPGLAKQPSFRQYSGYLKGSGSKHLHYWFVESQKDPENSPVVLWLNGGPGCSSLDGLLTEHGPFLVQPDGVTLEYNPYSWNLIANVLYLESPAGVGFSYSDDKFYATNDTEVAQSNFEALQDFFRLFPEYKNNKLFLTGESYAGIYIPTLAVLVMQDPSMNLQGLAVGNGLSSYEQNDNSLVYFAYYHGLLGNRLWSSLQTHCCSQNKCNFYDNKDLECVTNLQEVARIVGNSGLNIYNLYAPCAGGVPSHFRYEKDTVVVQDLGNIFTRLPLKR
# T1 sequence (P10619 327-480 limits assumed): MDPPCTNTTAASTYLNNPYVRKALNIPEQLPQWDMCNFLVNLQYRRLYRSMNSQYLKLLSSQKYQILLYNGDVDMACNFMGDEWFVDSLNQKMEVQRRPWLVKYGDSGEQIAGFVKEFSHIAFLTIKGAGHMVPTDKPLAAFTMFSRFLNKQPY
# Test: Cathepsin A inhibitory activity
# Type: biochemical
# Conditions: read-out: Activity (2): Cathepsin A inhibitory activity (IC50 class)
# Procedure: a) Cathepsin A Inhibitory Activity
# Recombinant human cathepsin A (residues 29-480, with a C-terminal 10-His tag; R&D Systems, #1049-SE) was proteolytically activated with recombinant human cathepsin L (R&D Systems, #952-CY). Briefly, cathepsin A was incubated at 10 μg/ml with cathepsin L at 1 μg/ml in activation buffer (25 mM 2-(morpholin-4-yl)-ethanesulfonic acid (MES), pH 6.0, containing 5 mM dithiothreitol (DTT)) for 15 min at 37° C. Cathepsin L activity was then stopped by the addition of the cysteine protease inhibitor E-64 (N-(trans-epoxysuccinyl)-L-leucine-4-guanidinobutylamide; Sigma-Aldrich, #E3132; dissolved in activation buffer/DMSO) to a final concentration of 10 μM.
# The activated cathepsin A was diluted in assay buffer (25 mM MES, pH 5.5, containing 5 mM DTT) and mixed with the test compound (dissolved in assay buffer containing (v/v) 3% DMSO) or, in the control experiments, with the vehicle in a multiple assay plate. After incubation for 15 min at room temperature, as substrate then bradykinin carrying an N-terminal®Bodipy FL (4,4-difluoro-5,7-dimethyl-4-bora-3a,4a-diaza-s-indacene-3-propionyl) label (JPT Peptide Technologies GmbH; dissolved in assay buffer) was added to the mixture. The final concentration of cathepsin A was 833 ng/ml and the final concentration of labeled bradykinin 2 μM. After incubation for 15 min at room temperature the reaction was stopped by the addition of stop buffer (130 mM 2-(4-(2-hydroxy-ethyl)-piperazin-1-yl)-ethanesulfonic acid, pH 7.4, containing (v/v) 0.013% Triton X-100, 0.13% Coating Reagent 3 (Caliper Life Sciences), 6.5% DMSO and 20 μM ebelactone B (Sigma, # E0886)).
# Uncleaved substrate and product were then separated by a microfluidic capillary electrophoresis on a LabChip® 3000 Drug Discovery System (12-Sipper-Chip; Caliper Life Sciences) and quantified by determination of the respective peak areas. Substrate turnover was calculated by dividing product peak area by the sum of substrate and product peak areas, and the enzyme activity and the inhibitory effect of the test compound thus quantified. From the percentage of inhibition of cathepsin A activity observed with the test compound at several concentrations, the inhibitory concentration IC50, i.e. the concentration which effects 50% inhibition of enzyme activity was, calculated.
row,SMILES,pIC50
1,"Cc1ccccc1[C@H](CC(=O)O)NC(=O)c1cc(OC[C@H](O)C(C)(C)C)n(-c2ccccc2F)n1 (single isomer, unassigned) [Example 745]",> 7.00
2,"Cc1ccccc1[C@H](CC(=O)O)NC(=O)c1cc(OC[C@](C)(O)C(C)(C)C)n(-c2ccccc2F)n1 (single isomer, unassigned) [Example 747]",> 7.00
3,"Cc1ccccc1[C@H](CC(=O)O)NC(=O)c1cc(OC[C@@](C)(O)C(C)(C)C)n(-c2ccccc2F)n1 (single isomer, unassigned) [Example 748]",> 7.00
4,"CC(C)(C)[C@@](C)(O)COc1cc(C(=O)N[C@@H](CC(=O)O)c2ccccc2Cl)nn1-c1ccccc1F (single isomer, unassigned) [Example 758]",> 7.00
5,"CC(C)(C)[C@](C)(O)COc1cc(C(=O)N[C@@H](CC(=O)O)c2ccccc2Cl)nn1-c1ccccc1F (single isomer, unassigned) [Example 759]",> 7.00
6,"Cc1ccccc1[C@H](CC(=O)O)NC(=O)c1cc(OC[C@H](O)C2CC2)n(-c2ccccc2F)n1 (single isomer, unassigned) [Example 760]",> 7.00
7,"Cc1ccccc1[C@H](CC(=O)O)NC(=O)c1cc(OC[C@@H](O)C2CC2)n(-c2ccccc2F)n1 (single isomer, unassigned) [Example 761]",> 7.00
8,"Cc1ccccc1[C@H](CC(=O)O)NC(=O)c1cc(OC[C@](C)(O)C2CC2)n(-c2ccccc2F)n1 (single isomer, unassigned) [Example 763]",> 7.00
9,"Cc1ccccc1[C@H](CC(=O)O)NC(=O)c1cc(OC[C@@](C)(O)C2CC2)n(-c2ccccc2F)n1 (single isomer, unassigned) [Example 764]",> 7.00

# Same assay, conditions: read-out: Activity (2): Cathepsin A inhibitory activity, IC50 class
row,SMILES,pIC50
1,"Cc1ccccc1[C@H](CC(=O)O)NC(=O)c1cc(OC[C@@](C)(O)C(C)C)n(-c2ccccc2F)n1 (single isomer, unassigned) [Example 833]",4.52 to 6.00
2,Cc1ccc(C)c(-n2nc(C(=O)NC(CC(=O)O)c3ccc(F)cc3)cc2O)c1 (stereo not drawn) [Example 1],4.52 to 6.00
3,CCCC(CC(=O)O)NC(=O)c1cc(O)n(-c2ccccc2)n1 (stereo not drawn) [Example 2],4.52 to 6.00
4,"COc1ccc(C(CC(=O)O)NC(=O)c2cc(O)n(-c3ccccc3)n2)cc1 (stereo not drawn) [Example 3, 3-[(5-Hydroxy-1-phenyl-1H-pyrazole-3-carbonyl)-amino]-3-(4-methoxy-phenyl)-propionic acid]",6.00 to 7.00
5,CC(C)(CC(=O)O)NC(=O)c1cc(O)n(-c2ccccc2)n1 [Example 4],4.52 to 6.00
6,O=C(O)CC1(NC(=O)c2cc(O)n(-c3ccccc3)n2)CCCC1 [Example 5],4.52 to 6.00
7,CC(C)(C)Oc1cccc(C(CC(=O)O)NC(=O)c2cc(O)n(-c3ccccc3)n2)c1 (stereo not drawn) [Example 6],4.52 to 6.00
8,"Cc1ccc(C)c(-n2nc(C(=O)NC(CC(=O)O)c3cccc(OC(C)(C)C)c3)cc2O)c1 (stereo not drawn) [Example 7, 3-(3-tert-Butoxy-phenyl)-3-{[1-(2,5-dimethyl-phenyl)-5-hydroxy-1H-pyrazole-3-carbonyl]-amino}-propionic acid]",4.52 to 6.00
9,Cc1ccc(C)c(-n2nc(C(=O)NC(C)(C)CC(=O)O)cc2O)c1 [Example 8],4.52 to 6.00
10,COc1cccc(C(CC(=O)O)NC(=O)c2cc(O)n(-c3ccccc3)n2)c1 (stereo not drawn) [Example 9],6.00 to 7.00
11,O=C(O)CC(NC(=O)c1cc(O)n(-c2ccccc2)n1)c1cccc(Cl)c1 (stereo not drawn) [Example 10],6.00 to 7.00
12,COc1ccc(C(CC(=O)O)NC(=O)c2cc(O)n(-c3ccccc3)n2)cc1OC (stereo not drawn) [Example 11],4.52 to 6.00
13,O=C(O)CC(NC(=O)c1cc(O)n(-c2ccccc2)n1)c1ccc(OC(F)(F)F)cc1 (stereo not drawn) [Example 12],6.00 to 7.00
14,CC(C)C(CC(=O)O)NC(=O)c1cc(O)n(-c2ccccc2)n1 (stereo not drawn) [Example 13],4.52 to 6.00
15,CCCCC(CC(=O)O)NC(=O)c1cc(O)n(-c2ccccc2)n1 (stereo not drawn) [Example 14],6.00 to 7.00
16,O=C(O)CC(CCc1ccccc1)NC(=O)c1cc(O)n(-c2ccccc2)n1 (stereo not drawn) [Example 15],4.52 to 6.00
17,O=C(O)CC(NC(=O)c1cc(O)n(-c2ccccc2)n1)c1cccnc1 (stereo not drawn) [Example 16],6.00 to 7.00
18,O=C(O)CC(NC(=O)c1cc(O)n(-c2ccccc2)n1)C1CC1 (stereo not drawn) [Example 17],4.52 to 6.00
19,O=C(O)CC(NC(=O)c1cc(O)n(-c2ccccc2)n1)C1CCCCC1 (stereo not drawn) [Example 18],6.00 to 7.00
20,CC(C)CC(CC(=O)O)NC(=O)c1cc(O)n(-c2ccccc2)n1 (stereo not drawn) [Example 19],6.00 to 7.00
21,O=C(O)CC(NC(=O)c1cc(O)n(-c2ccccc2)n1)c1ccccc1Cl (stereo not drawn) [Example 20],6.00 to 7.00
22,Cc1ccccc1C(CC(=O)O)NC(=O)c1cc(O)n(-c2ccccc2)n1 (stereo not drawn) [Example 21],6.00 to 7.00
23,CCc1ccc(C(CC(=O)O)NC(=O)c2cc(O)n(-c3ccccc3)n2)cc1 (stereo not drawn) [Example 22],6.00 to 7.00
24,CC(C)(C)Oc1ccc(C(CC(=O)O)NC(=O)c2cc(O)n(-c3ccccc3)n2)cc1 (stereo not drawn) [Example 23],4.52 to 6.00

row,SMILES,pIC50
1,CC(C)c1ccc(C(CC(=O)O)NC(=O)c2cc(O)n(-c3ccccc3)n2)cc1 (stereo not drawn) [Example 24],6.00 to 7.00
2,COc1ccc(C(CC(=O)O)NC(=O)c2cc(O)n(-c3ccccc3)n2)c(C)c1C (stereo not drawn) [Example 25],4.52 to 6.00
3,CCCC(CC(=O)O)NC(=O)c1cc(O)n(-c2cc(C)ccc2C)n1 (stereo not drawn) [Example 26],4.52 to 6.00
4,COc1ccc(C(CC(=O)O)NC(=O)c2cc(O)n(-c3cc(C)ccc3C)n2)cc1 (stereo not drawn) [Example 27],4.52 to 6.00
5,COc1cccc(C(CC(=O)O)NC(=O)c2cc(O)n(-c3cc(C)ccc3C)n2)c1 (stereo not drawn) [Example 28],4.52 to 6.00
6,Cc1ccc(C)c(-n2nc(C(=O)NC(CC(=O)O)c3cccc(Cl)c3)cc2O)c1 (stereo not drawn) [Example 29],4.52 to 6.00
7,COc1ccc(C(CC(=O)O)NC(=O)c2cc(O)n(-c3cc(C)ccc3C)n2)cc1OC (stereo not drawn) [Example 30],4.52 to 6.00
8,Cc1ccc(C)c(-n2nc(C(=O)NC(CC(=O)O)c3ccc(OC(F)(F)F)cc3)cc2O)c1 (stereo not drawn) [Example 31],4.52 to 6.00
9,Cc1ccc(C)c(-n2nc(C(=O)NC(CC(=O)O)C(C)C)cc2O)c1 (stereo not drawn) [Example 32],4.52 to 6.00
10,CCCCC(CC(=O)O)NC(=O)c1cc(O)n(-c2cc(C)ccc2C)n1 (stereo not drawn) [Example 33],4.52 to 6.00
11,Cc1ccc(C)c(-n2nc(C(=O)NC(CCc3ccccc3)CC(=O)O)cc2O)c1 (stereo not drawn) [Example 34],4.52 to 6.00
12,Cc1ccc(C)c(-n2nc(C(=O)NC(CC(=O)O)c3cccnc3)cc2O)c1 (stereo not drawn) [Example 35],4.52 to 6.00
13,Cc1ccc(C)c(-n2nc(C(=O)NC(CC(=O)O)C3CC3)cc2O)c1 (stereo not drawn) [Example 36],4.52 to 6.00
14,Cc1ccc(C)c(-n2nc(C(=O)NC(CC(=O)O)C3CCCCC3)cc2O)c1 (stereo not drawn) [Example 37],4.52 to 6.00
15,Cc1ccc(C)c(-n2nc(C(=O)NC(CC(=O)O)CC(C)C)cc2O)c1 (stereo not drawn) [Example 38],4.52 to 6.00
16,Cc1ccc(C)c(-n2nc(C(=O)NC(CC(=O)O)c3ccccc3Cl)cc2O)c1 (stereo not drawn) [Example 39],4.52 to 6.00
17,Cc1ccc(C)c(-n2nc(C(=O)NC(CC(=O)O)c3ccccc3C)cc2O)c1 (stereo not drawn) [Example 40],6.00 to 7.00
18,CCc1ccc(C(CC(=O)O)NC(=O)c2cc(O)n(-c3cc(C)ccc3C)n2)cc1 (stereo not drawn) [Example 41],4.52 to 6.00
19,Cc1ccc(C)c(-n2nc(C(=O)NC3(CC(=O)O)CCCC3)cc2O)c1 [Example 42],4.52 to 6.00
20,Cc1ccc(C)c(-n2nc(C(=O)NC(CC(=O)O)C3CCOCC3)cc2O)c1 (stereo not drawn) [Example 43],4.52 to 6.00
21,Cc1ccc(C)c(-n2nc(C(=O)NC(CC(=O)O)C3CCCC3)cc2O)c1 (stereo not drawn) [Example 44],4.52 to 6.00
22,Cc1ccc(C)c(-n2nc(C(=O)NC(CC(=O)O)c3ccc(Cl)cc3)cc2O)c1 (stereo not drawn) [Example 45],4.52 to 6.00
23,Cc1ccc(C)c(-n2nc(C(=O)NC(CC(=O)O)c3ccc(CC(C)C)cc3)cc2O)c1 (stereo not drawn) [Example 46],4.52 to 6.00

# Same assay, conditions: recombinant human cathepsin A 833 ng/ml, Bodipy FL-labeled bradykinin 2 μM, pH 5.5; read-out: CATH-A IC50
row,SMILES,pIC50
1,"Cc1ccccc1[C@H](CC(=O)O)NC(=O)c1cc(OC[C@H](O)C(C)(C)C)n(-c2ccccc2F)n1 (single isomer, unassigned) [Example 745]",8.33
2,"Cc1ccccc1[C@H](CC(=O)O)NC(=O)c1cc(OC[C@](C)(O)C(C)(C)C)n(-c2ccccc2F)n1 (single isomer, unassigned) [Example 747]",7.83
3,"Cc1ccccc1[C@H](CC(=O)O)NC(=O)c1cc(OC[C@@](C)(O)C(C)(C)C)n(-c2ccccc2F)n1 (single isomer, unassigned) [Example 748]",8.59
4,"CC(C)(C)[C@@](C)(O)COc1cc(C(=O)N[C@@H](CC(=O)O)c2ccccc2Cl)nn1-c1ccccc1F (single isomer, unassigned) [Example 758]",7.76
